# Results from paper PMC4861708 (Frontiers in Cell and Developmental Biology, 2016).
# Where a SMILES comes first, the peptide text is derived from it. [ ]: non-standard residue; d: D form. The star is where a group is joined. Orn(α-tetramethylguanidino) = CN(C)C(=N[C@@H](CCCN)C(=O)*)N(C)C; Orn = NCCC[C@H](N)C(=O)O
# Assays:
# [1] = tested on: K. pneumoniae DSM 681 (ATCC 10031); type: cell-based, Klebsiella pneumoniae; conditions: DSM 681, 24 h
# Experimental: (§1) MICs of P. aeruginosa strains DSM 1117 (ATCC 27853), DSM 3227 (ATCC 19429), and DSM 9644 were determined in a microdilution broth assay using 50 or 100% MHB (11.5 and 23 g/L MHB, respectively) whereas MICs of E. coli DSM 1103 (ATCC 25922) and K. pneumoniae DSM 681 (ATCC 10031) were determined in TSB (30 g/L TSB). Peptides (1 g/L in water) were serially two-fold diluted in a 96-well microtiter plate (PS, sterile, flat bottom) in 50 μL of the corresponding medium to final concentrations of 512–4 μg/mL. Bacteria were grown in nutrient broth overnight and diluted to a cell concentration of 1.5 × 10^7 cells/mL in the corresponding medium. Cell densities were determined by using the McFarland standard as reference. An aliquot (50 μL) of the cell culture was added to each well and incubated (37°C, 24 h). The OD595 was determined in a SpectraMax 340PC (Molecular Devices, Sunnyvale, USA). Additionally, MIC values were also determined for high bacteria densities (5 × 10^8 cells/mL) corresponding to the conditions used for TEM, as described above.
# [2] = tested on: E. coli DSM 1103 (ATCC 25922); type: cell-based, Escherichia coli; conditions: DSM 1103, 24 h
# Experimental: as §1
# [3] = tested on: P. aeruginosa DSM 1117 (ATCC 27853); parameters: method as in Bluhm et al., 2015; conditions: 50% MHB; ref Bluhm et al., 2015; cited from earlier work
# [4] = in vitro; conditions: mouse, mouse serum, Half-life time mouse serum, 37°C
# Experimental: Peptide solutions (1 g/L) were added to mouse serum to obtain final concentrations of 70 mg/L peptide and incubated under constant shaking at 37°C. After 0, 1, 2, 3, and 6 h aliquots (95 μL) were precipitated with aqueous TCA (25 μL, 15% w/v), incubated for 10 min on ice, and centrifuged (5 min, 12,000 × g, Eppendorf mini spin centrifuge). An aliquot of the supernatant (95 μL) was neutralized with sodium hydroxide (8 μL, 1 mol/L) and diluted with aqueous acetonitrile solution (3% acetonitrile, 0.1% TFA; 200 μL). Peptides were quantified by the peak areas obtained by analytical RP-HPLC on a Jupiter C18-column (ID: 2 mm) using a linear aqueous acetonitrile gradient with 0.1% (v/v) TFA (absorbance recorded at 214 nm). Peak areas of all time points were normalized to the initial peak area obtained after “0 min incubation” (= 100%). Experiments were carried out as triplicates in parallel and half-life times were calculated using GraphPad Prism 5.0.
# [5] = tested on: HEK293 cells; assay: in vitro; type: cell-based, human; conditions: 24 h
# Experimental: (§2) Human embryonic kidney (HEK293) and HeLa cells were cultured in Dulbecco's modified Eagle's/Ham's F-12 medium [DMEM/F-12 (1:1)] supplemented with FBS (10% v/v), penicillin, and streptomycin (1000 units each). Primary rat cardiomyocytes (Innoprot, Elexalde Derio, Spain) were grown in medium supplemented with FBS (20% v/v), horse serum (5% v/v), L-glutamine (2 mmol/L), sodium pyruvate (2 mmol/L), MEM non-essential amino acids (Gibco, 0.1 mmol/L), penicillin, and streptomycin (1000 units each). Surfaces for cardiomyocyte growth were coated with attachment factor first. Cells (20,000/well) were seeded into a 96-well plate (PS, sterile, flat bottom), incubated for 24 h (37°C, 5% CO2), and washed twice with PBS (100 μl/well) prior to adding colorless medium (88 μL) and peptide solution (12 μL; 5, 2.5, 1.25, […], and 0.625 g/L in PBS). Positive controls were triton X-100 (1%, v/v) and melittin (60 mg/L) as lytic peptide, whereas PBS (12%, v/v) served as negative control. After an incubation period of 24 h, supernatant (25 μL) was mixed with lactate dehydrogenase (LDH) substrate (175 μL; 0.57 mmol/L sodium pyruvate, 0.24 mmol/L NADH disodium salt, 32 mmol/L potassium dihydrogen phosphate, 66 mmol/L dipotassium phosphate) in 96-well plates (PS, sterile, flat bottom). Absorbance was recorded at 340 nm every 3 min for 30 min on the Paradigm microplate reader. Due to the total release of LDH upon triton X-100 treatment, the control contained high LDH concentrations resulting in a fast substrate turnover that was only linear for the first 6 min.
# (§3) The MTT cell viability assay relied on the same cell culture. Remaining medium was replaced by a mixture of fresh colorless medium (100 μL) and MTT (10 μL; 5 g/L in PBS) and incubated for 4 h (37°C, 5% CO2). A solution of sodium dodecyl sulfate (100 μL; 10%, w/v) dissolved in hydrochloric acid (10 mmol/L) was added, incubated (16 h), and the absorbance recorded at 590 nm relative to the reference at 650 nm (Paradigm microplate reader). The relative cell viability was calculated by [(ODPeptide − ODTriton)/(ODPBS − ODTriton)] × 100% and half-maximal inhibitory concentrations (IC50) with an Excel-template from cell biology protocols (www.sciencegateway.org/ protocols/cellbio/drug/hcic50.htm). For statistical analysis an unpaired t-test was applied using GraphPad Prism 5.0.
# [6] = tested on: Primary rat cardiomyocytes; assay: in vitro; type: cell-based; conditions: 24 h
# Experimental: as §2, §3
# [7] = tested on: HeLa cells; assay: in vitro; type: cell-based; conditions: 24 h
# Experimental: as §2, §3
# [8] = in vitro; type: cell-based, human; conditions: human
# Experimental: as §2, §3
# [9] = in vitro; type: cell-based; conditions: human
# Experimental: as §2, §3
# [10] = target: T1, P. aeruginosa elastase (Pseudomonas aeruginosa, UniProt P14756); assay: Elastase assay (proteolytic stability); type: in vitro ADME; conditions: Pseudomonas aeruginosa; 0.5 g/L peptide, elastase 12 units/mL, Tris-HCl pH 8.3, 37°C; read-out: Half-life time with Pseudomonas elastase
# T1 construct: purchased Merck (Darmstadt, Germany)
# T1 sequence (P14756 198-498): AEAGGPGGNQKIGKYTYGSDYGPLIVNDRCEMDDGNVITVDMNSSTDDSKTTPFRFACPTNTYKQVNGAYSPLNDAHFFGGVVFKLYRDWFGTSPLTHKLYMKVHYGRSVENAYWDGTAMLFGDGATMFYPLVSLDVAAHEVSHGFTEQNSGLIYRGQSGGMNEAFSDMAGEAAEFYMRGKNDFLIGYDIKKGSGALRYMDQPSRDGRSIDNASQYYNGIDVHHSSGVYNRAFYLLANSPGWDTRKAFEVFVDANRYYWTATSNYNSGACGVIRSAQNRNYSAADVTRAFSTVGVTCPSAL
# Experimental: A stock solution of P. aeruginosa elastase (0.26 U/μL) was prepared in Tris-HCl (5 mmol/L, pH 8.3) and stored at −80°C. Peptides (0.5 g/L in 5 mmol/L Tris-HCl, pH 8.3) were incubated with elastase (0.012 U/μL) at 37°C under constant shaking (450 rpm) for 0, 0.5, 2, 4, and 6 h. Aliquots (10.5 μL) were precipitated with a mixture of acetonitrile and ethanol (1:1 v/v) containing 0.1% TFA (21 μL), centrifuged, the supernatant transferred into a new tube, and dried in vacuum. Samples were dissolved in aqueous acetonitrile (3% v/v) containing TFA (0.1% v/v) and analyzed by RP-HPLC using the conditions described above.
# [11] = tested on: P. aeruginosa elastase; assay: P. aeruginosa elastase (0.012 U/μL) in Tris-HCl (5 mmol/L, pH 8.3); conditions: 37°C, up to 6 h
compound,measurement,setting,value
"CC[C@H](C)[C@H](NC(=O)[C@H](CCCN)N=C(N(C)C)N(C)C)C(=O)N[C@@H](CCCN)C(=O)N[C@@H](CCCNC(=N)N)C(=O)N1CCC[C@H]1C(=O)N[C@H](C(=O)N[C@@H](Cc1ccc(O)cc1)C(=O)N[C@@H](CCCN)C(=O)N1CCC[C@H]1C(=O)N[C@@H](CCCNC(=N)N)C(=O)N1CCC[C@H]1C(=O)N[C@@H](CCCNC(=N)N)C(=O)N1CCC[C@H]1C(=O)N1CCC[C@H]1C(=O)N[C@@H](Cc1c[nH]cn1)C(=O)N1CCC[C@H]1C(=O)N[C@@H](CCCNC(=N)N)C(=O)N[C@@H](CC(C)C)C(=O)O)C(C)C [Api755, gu-OIORPVYOPRPRPPHPRL-OH, reference compound] ({Orn(α-tetramethylguanidino)}-I[Orn]RPVY[Orn]PRPRPPHPRL-OH)",MIC K. pneumoniae DSM 681,[1],8 µg/mL
same,MIC E. coli ATCC 25922,[2],8 µg/mL
same,times more active than Api137 against P. aeruginosa,[3],16
"CC(C)C[C@H](NC(=O)[C@H](CCCNC(=N)N)NC(=O)[C@@H]1CCCN1C(=O)[C@H](Cc1c[nH]cn1)NC(=O)[C@@H]1CCCN1C(=O)[C@@H]1CCCN1C(=O)[C@H](CCCNC(=N)N)NC(=O)[C@@H]1CCCN1C(=O)[C@H](CCCNC(=N)N)NC(=O)[C@@H]1CCCN1C(=O)[C@H](CCCN)NC(=O)[C@H](Cc1ccc(O)cc1)NC(=O)[C@@H](NC(=O)[C@@H]1CCCN1C(=O)[C@H](CCCNC(=N)N)NC(=O)[C@H](CCCN)NC(=O)[C@H](Cc1c[nH]c2ccccc12)NC(=O)[C@H](CCCN)N=C(N(C)C)N(C)C)C(C)C)C(=O)O [Api760, gu-OWORPVYOPRPRPPHPRL-OH, reference compound] ({Orn(α-tetramethylguanidino)}-W[Orn]RPVY[Orn]PRPRPPHPRL-OH)",MIC K. pneumoniae DSM 681,[1],8 µg/mL
same,MIC E. coli ATCC 25922,[2],8 µg/mL
same,times more active than Api137 against P. aeruginosa,[3],16
"CC(C)C[C@H](NC(=O)[C@H](CCCNC(=N)N)NC(=O)[C@@H]1CCCN1C(=O)[C@H](Cc1c[nH]cn1)NC(=O)[C@@H]1CCCN1C(=O)[C@@H]1CCCN1C(=O)[C@H](CCCNC(=N)N)NC(=O)[C@@H]1CCCN1C(=O)[C@H](CCCNC(=N)N)NC(=O)[C@@H]1CCCN1C(=O)[C@H](CCCN)NC(=O)[C@H](Cc1ccc(O)cc1)NC(=O)[C@@H](NC(=O)[C@@H]1CCCN1C(=O)[C@H](CCCNC(=N)N)NC(=O)[C@H](CCCN)NC(=O)[C@H](Cc1c[nH]c2ccccc12)NC(=O)[C@H](CCCN)NC(=O)[C@H](Cc1c[nH]c2ccccc12)NC(=O)[C@H](CCCN)N=C(N(C)C)N(C)C)C(C)C)C(=O)O [Api793, guO(WO)2RPVYOPRPRPPHPRL] ({Orn(α-tetramethylguanidino)}-W[Orn]W[Orn]RPVY[Orn]PRPRPPHPRL-OH)",MIC K. pneumoniae DSM 681,[1],16 µg/mL
same,half-life at 70 mg/L,[4],4.1 h
same,IC50 on cell viability,[5],640 ± 50 µg/mL
same,MIC E. coli ATCC 25922,[2],8 µg/mL
same,IC50 on cell viability,[6],>600 µg/mL
same,IC50 on cell viability,[7],640 ± 150 µg/mL
"CC[C@H](C)[C@H](NC(=O)[C@H](CCCN)N=C(N(C)C)N(C)C)C(=O)N[C@@H](CCCN)C(=O)N[C@H](C(=O)N[C@@H](CCCN)C(=O)N[C@H](C(=O)N[C@@H](CCCN)C(=O)N[C@@H](CCCNC(=N)N)C(=O)N1CCC[C@H]1C(=O)N[C@H](C(=O)N[C@@H](Cc1ccc(O)cc1)C(=O)N[C@@H](CCCN)C(=O)N1CCC[C@H]1C(=O)N[C@@H](CCCNC(=N)N)C(=O)N1CCC[C@H]1C(=O)N[C@@H](CCCNC(=N)N)C(=O)N1CCC[C@H]1C(=O)N1CCC[C@H]1C(=O)N[C@@H](Cc1c[nH]cn1)C(=O)N1CCC[C@H]1C(=O)N[C@@H](CCCNC(=N)N)C(=O)N[C@@H](CC(C)C)C(=O)O)C(C)C)[C@@H](C)CC)[C@@H](C)CC [Api796, GuO(IO)3RPVYOPRPRPPHPRL] ({Orn(α-tetramethylguanidino)}-I[Orn]I[Orn]I[Orn]RPVY[Orn]PRPRPPHPRL-OH)",MIC K. pneumoniae DSM 681,[1],16 µg/mL
same,half-life at 70 mg/L,[4],4.15 h
same,"viability at 24 h, 0.6 g/L",[8],~60%
same,IC50 on cell viability,[5],>600 µg/mL
same,MIC E. coli ATCC 25922,[2],8 µg/mL
same,IC50 on cell viability,[6],>600 µg/mL
same,"viability at 24 h, 0.6 g/L",[9],61 ± 14%
same,IC50 on cell viability,[7],>600 µg/mL
"CC[C@H](C)[C@H](NC(=O)[C@H](CCCCN)NC(=O)[C@H](CCC(=O)O)NC(=O)[C@H](CCCCN)NC(=O)[C@H](CO)NC(=O)[C@H](CCCCN)NC(=O)[C@H](CCCNC(=N)N)NC(=O)[C@H](Cc1ccccc1)NC(=O)[C@H](Cc1ccccc1)NC(=O)[C@H](CC(=O)O)NC(=O)CNC(=O)[C@H](CC(C)C)NC(=O)[C@@H](N)CC(C)C)C(=O)NCC(=O)N[C@@H](CCCCN)C(=O)N[C@@H](CCC(=O)O)C(=O)N[C@@H](Cc1ccccc1)C(=O)N[C@@H](CCCCN)C(=O)N[C@@H](CCCNC(=N)N)C(=O)N[C@H](C(=O)N[C@H](C(=O)N[C@@H](CCC(N)=O)C(=O)N[C@@H](CCCNC(=N)N)C(=O)N[C@H](C(=O)N[C@@H](CCCCN)C(=O)N[C@@H](CC(=O)O)C(=O)N[C@@H](Cc1ccccc1)C(=O)N[C@@H](CC(C)C)C(=O)N[C@@H](CCCNC(=N)N)C(=O)N[C@@H](CC(N)=O)C(=O)N[C@@H](CC(C)C)C(=O)N[C@H](C(=O)N1CCC[C@H]1C(=O)N[C@@H](CCCNC(=N)N)C(=O)N[C@H](C(=O)N[C@@H](CCC(=O)O)C(=O)N[C@@H](CO)C(=O)O)[C@@H](C)O)C(C)C)[C@@H](C)CC)C(C)C)[C@@H](C)CC [LL-37, reference compound]",half-life at 0.5 g/L,[10],3 min
gu-O(IO)2RPVYOPRPRPPHPRL-OH,not cleaved,[11],92 ± 4% detected after 30 min and for all later time points (6 h)
gu-ONNRPVYIPRPRPPHPRL-OH,not cleaved,[11],fully recovered after an incubation period of 6 h
